Reference: US7060451B2, “Methods for screening GABA-modulatory compounds for specified pharmacological activities” (Neurogen Corporation, priority 1999, dated 2006)

Key:
rats [1] = test: step-down passive avoidance; assay type: in vivo; conditions: rat; for cognitive model (step-down passive avoidance), minimal efficacious dose: cognitive enhancement
Excerpt: In step-down passive avoidance a rat is placed on a platform located in the center of an electrified grid floor that is contained within a large (45 cm×45 cm×50 cm) white translucent Plexiglas® enclosure. The natural inclination of the rat is to step off the platform and investigate its surroundings. […] Each time the animal steps off the platform it receives a mild foot shock of 2 mAmps×6 sec. Following each shock the animal is removed from the box, placed in its cage for a one minute inter-trial interval, and then returned to the platform. The latency to step down on each trial, the number of trials taken to reach criterion during training and the retention latency are collected.
Testing is conducted approximately 24 hrs. after training. Drug-free animals are placed on the platform in the box in which they will have been trained and the latency to step down onto the grid floor is recorded for one trial as a measure of memory retention.

[2] = target: GABAA receptors (benzodiazepine site, Ro15-1788 binding sites), rat cortex; test: Ro15-1788 competition binding assay, rat cortex membranes; conditions: displacement of 3H Ro15-1788, read-out: Ro15-1788 binding, K1
Method: Rat cortex membranes are prepared by homogenizing one or two previously frozen rat cortexes in 30 ml of 25 mM Tris Buffer, pH 7.4. The homogenate is centrifuged for 10 minutes at 500× g. The supernatant is then transferred to a clean centrifuge tube and the pellet discarded. The supernatant is spun for 20 minutes at 48,000× g. The supernatant from this spin is discarded and the pellet is resuspended in 30 ml of 25 mM Tris Buffer, pH 7.4 and centrifuged for an additional 10 minutes at 48,000× g. The supernatant from the final spin is discarded and the membrane pellet is resuspended in 100 mL Tris buffer per gram of cortex used.
The cortex membrane preparation is used to perform either percent inhibition or competition binding assays. In order to determine percent inhibition 300 μl of resuspended membranes are mixed with 200 μl ^3H labeled Ro15-1788 (final concentration 2.5 nM) and incubated for 1 hour on ice in the presence of 2 μl test compound in DMSO (final concentration 4 μM). Membranes are harvested onto untreated filtermats. The filtermats are dried and the ^3H Ro15-1788 signal is counted in a scintillation counter. Nonspecific binding is determined by displacement of ^3H Ro15-1788 with 10 μM Diazepam (RBI) or any other compound known to bind tightly at the benzodiazepine site.
K1 values are calculated according to the Cheng-Prussof equation.

[3] = target: α2β3γ2 GABAA subtype receptor (Homo sapiens, UniProt P18507+P47869); test: oocyte electrophysiology, two electrode voltage-clamp, potentiation of GABA current; assay type: cell-based; conditions: Xenopus oocytes, human subunits, GABA EC10
Chain of α2β3γ2 GABAA subtype receptor (P47869 29-451): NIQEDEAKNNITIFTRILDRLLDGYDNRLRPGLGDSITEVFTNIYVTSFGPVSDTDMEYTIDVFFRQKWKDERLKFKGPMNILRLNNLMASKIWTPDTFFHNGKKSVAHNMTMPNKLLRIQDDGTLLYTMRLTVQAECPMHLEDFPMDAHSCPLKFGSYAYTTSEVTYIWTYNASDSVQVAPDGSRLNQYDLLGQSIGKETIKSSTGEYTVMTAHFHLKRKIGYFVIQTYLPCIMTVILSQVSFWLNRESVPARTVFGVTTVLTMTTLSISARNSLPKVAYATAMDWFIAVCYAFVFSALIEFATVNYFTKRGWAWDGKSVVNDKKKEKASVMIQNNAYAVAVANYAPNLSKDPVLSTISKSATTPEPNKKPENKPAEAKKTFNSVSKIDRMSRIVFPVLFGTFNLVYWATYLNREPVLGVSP
Chain of α2β3γ2 GABAA subtype receptor (P28472 26-473 partner): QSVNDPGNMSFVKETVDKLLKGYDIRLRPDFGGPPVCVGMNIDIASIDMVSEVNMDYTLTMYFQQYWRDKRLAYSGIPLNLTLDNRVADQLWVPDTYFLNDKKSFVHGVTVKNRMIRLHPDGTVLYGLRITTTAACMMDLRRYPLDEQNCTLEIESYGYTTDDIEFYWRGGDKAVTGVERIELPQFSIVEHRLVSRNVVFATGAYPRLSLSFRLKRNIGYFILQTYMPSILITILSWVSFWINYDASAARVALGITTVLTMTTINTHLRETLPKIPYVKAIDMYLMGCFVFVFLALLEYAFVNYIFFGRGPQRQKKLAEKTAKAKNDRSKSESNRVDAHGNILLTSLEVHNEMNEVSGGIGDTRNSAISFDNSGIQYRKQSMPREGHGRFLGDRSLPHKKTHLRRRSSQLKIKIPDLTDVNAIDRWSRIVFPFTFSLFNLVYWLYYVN
Chain of α2β3γ2 GABAA subtype receptor (P18507 40-475): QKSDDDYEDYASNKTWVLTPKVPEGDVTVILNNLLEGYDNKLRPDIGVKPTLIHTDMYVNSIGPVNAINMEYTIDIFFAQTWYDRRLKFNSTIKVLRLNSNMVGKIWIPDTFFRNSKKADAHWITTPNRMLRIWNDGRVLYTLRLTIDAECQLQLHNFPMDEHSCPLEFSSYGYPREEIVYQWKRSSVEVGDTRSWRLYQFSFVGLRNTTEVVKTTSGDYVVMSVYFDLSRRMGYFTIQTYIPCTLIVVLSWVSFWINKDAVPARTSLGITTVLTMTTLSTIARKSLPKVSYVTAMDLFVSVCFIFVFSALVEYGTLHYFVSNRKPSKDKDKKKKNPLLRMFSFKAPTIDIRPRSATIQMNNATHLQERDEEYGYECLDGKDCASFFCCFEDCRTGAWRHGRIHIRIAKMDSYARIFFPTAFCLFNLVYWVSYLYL
Method: (§1) Assays are carried out as described previously in White and Gurley, 1995 and White, et al., 1995. Xenopus laevis oocytes are enzymatically isolated and injected with non-polyadenylated cRNA for human derived α, β and γ GABAA subunits, respectively. In more preferred embodiments cRNA for the α1β2γ2, α2β3γ2, α3β3γ2, and α5β3γ2 subunit combinations are injected. Only one of these subunit combinations is injected per cell. For each subunit combination, sufficient message is injected to result in current amplitudes of >10 nA when 1 μM GABA is applied. Electrophysiological recordings are carried out using the two electrode voltage-clamp technique at a membrane holding potential of −70 mV.
(§2) Compounds are evaluated against a GABA concentration that evokes <10% (EC10) of the maximal evocable GABA current. Each oocyte is exposed to increasing concentrations of compound in order to evaluate a concentration/effect relationship.
(§3) Specificity of a compound for the Ro15-1788 site is determined following completion of the concentration/effect curve. After washing the oocyte sufficiently to remove previously applied compound, the oocyte is exposed to GABA and 1 μM Ro15-1788, followed by exposure to GABA, 1 μM Ro15-1788, and compound. Percent change due to addition of compound is calculated as described above. Any percent change observed in the presence of Ro15-1788 is subtracted from the percent changes in current amplitude observed in the absence of 1 μM Ro15-1788. These net values are used for the calculation of average activity and EC50 values.
(§4) To evaluate average activity and EC50 values, the concentration/effect data are averaged across cells and fit to the logistic equation. Average values are reported as mean ±standard error.

[4] = target: α5β3γ2 GABAA subtype receptor (Homo sapiens, UniProt P18507+P31644); test: as above; assay type: cell-based; conditions: Xenopus oocytes, human subunits, GABA EC10; for Emax: read-out: oocyte electrophysiology maximum potentiation (%) α5β3γ2
Chain of α5β3γ2 GABAA subtype receptor (P31644 32-462): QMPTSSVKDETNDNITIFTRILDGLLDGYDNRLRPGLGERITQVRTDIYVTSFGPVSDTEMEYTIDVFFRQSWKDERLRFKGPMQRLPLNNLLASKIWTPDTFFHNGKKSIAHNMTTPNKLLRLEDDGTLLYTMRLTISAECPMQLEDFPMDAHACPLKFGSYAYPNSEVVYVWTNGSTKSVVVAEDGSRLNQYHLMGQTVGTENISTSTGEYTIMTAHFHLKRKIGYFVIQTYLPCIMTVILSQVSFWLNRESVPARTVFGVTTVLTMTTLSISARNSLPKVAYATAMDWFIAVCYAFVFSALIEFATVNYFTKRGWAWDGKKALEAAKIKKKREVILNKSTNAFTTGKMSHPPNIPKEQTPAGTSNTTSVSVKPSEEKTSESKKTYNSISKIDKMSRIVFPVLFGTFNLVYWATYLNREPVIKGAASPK
Chain of α5β3γ2 GABAA subtype receptor (P28472 26-473 partner): as the sequence (P28472 26-473 partner) above
Chain of α5β3γ2 GABAA subtype receptor (P18507 40-475): as the sequence (P18507 40-475) above
Method: as §1, §2, §3, §4

[5] = target: α3β3γ2 GABAA subtype receptor (Homo sapiens, UniProt P18507+P34903); test: as above; assay type: cell-based; conditions: Xenopus oocytes, human subunits, GABA EC10
Chain of α3β3γ2 GABAA subtype receptor (P34903 29-492): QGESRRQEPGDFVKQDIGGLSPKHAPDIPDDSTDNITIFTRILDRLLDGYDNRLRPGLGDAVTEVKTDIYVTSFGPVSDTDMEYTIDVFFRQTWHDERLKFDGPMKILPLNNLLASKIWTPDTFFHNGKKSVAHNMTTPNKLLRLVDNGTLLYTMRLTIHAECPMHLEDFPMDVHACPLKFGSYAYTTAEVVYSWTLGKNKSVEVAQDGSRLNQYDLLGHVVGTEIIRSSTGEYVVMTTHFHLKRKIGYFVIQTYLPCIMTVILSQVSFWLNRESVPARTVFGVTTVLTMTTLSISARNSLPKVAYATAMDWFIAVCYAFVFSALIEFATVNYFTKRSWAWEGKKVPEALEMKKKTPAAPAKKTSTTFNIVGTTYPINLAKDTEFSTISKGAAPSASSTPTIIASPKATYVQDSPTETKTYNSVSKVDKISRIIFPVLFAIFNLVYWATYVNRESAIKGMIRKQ
Chain of α3β3γ2 GABAA subtype receptor (P28472 26-473 partner): as the sequence (P28472 26-473 partner) above
Chain of α3β3γ2 GABAA subtype receptor (P18507 40-475): as the sequence (P18507 40-475) above
Method: as §1, §2, §3, §4

[6] = target: α1β2γ2 GABAA subtype receptor (Homo sapiens, UniProt P14867+P18507); test: as above; assay type: cell-based; conditions: Xenopus oocytes, human subunits, GABA EC10; for Emax: read-out: oocyte electrophysiology maximum potentiation (%) α1β2γ2
Chain of α1β2γ2 GABAA subtype receptor (P14867 28-456): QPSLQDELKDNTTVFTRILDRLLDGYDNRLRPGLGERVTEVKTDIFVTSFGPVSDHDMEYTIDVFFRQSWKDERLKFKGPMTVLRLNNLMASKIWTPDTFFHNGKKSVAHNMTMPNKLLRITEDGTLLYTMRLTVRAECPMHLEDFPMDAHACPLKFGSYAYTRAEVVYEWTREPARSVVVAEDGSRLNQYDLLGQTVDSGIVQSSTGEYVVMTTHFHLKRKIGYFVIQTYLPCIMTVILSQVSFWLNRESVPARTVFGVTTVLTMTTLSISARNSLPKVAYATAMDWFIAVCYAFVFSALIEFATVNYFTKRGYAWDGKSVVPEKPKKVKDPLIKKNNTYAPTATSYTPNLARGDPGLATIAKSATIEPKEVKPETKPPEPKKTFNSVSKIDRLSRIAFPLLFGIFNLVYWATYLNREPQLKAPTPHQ
Chain of α1β2γ2 GABAA subtype receptor (P47870 25-512 partner limits assumed): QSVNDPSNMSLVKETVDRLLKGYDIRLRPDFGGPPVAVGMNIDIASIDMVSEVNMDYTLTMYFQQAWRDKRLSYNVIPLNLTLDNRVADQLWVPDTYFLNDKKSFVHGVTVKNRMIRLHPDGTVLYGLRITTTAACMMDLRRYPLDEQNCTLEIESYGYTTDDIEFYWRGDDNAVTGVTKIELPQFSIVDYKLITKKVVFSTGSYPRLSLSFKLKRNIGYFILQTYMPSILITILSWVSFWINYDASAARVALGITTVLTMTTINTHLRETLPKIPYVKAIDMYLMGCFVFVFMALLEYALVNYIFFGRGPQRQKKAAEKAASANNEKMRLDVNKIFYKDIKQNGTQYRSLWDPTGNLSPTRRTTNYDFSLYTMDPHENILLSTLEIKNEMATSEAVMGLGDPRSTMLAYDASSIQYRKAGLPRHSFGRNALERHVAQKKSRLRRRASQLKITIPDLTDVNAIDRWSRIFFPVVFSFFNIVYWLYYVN
Chain of α1β2γ2 GABAA subtype receptor (P18507 40-475): as the sequence (P18507 40-475) above
Method: as §1, §2, §3, §4

rats [7] = test: spontaneous locomotor activity; assay type: in vivo; conditions: rat
Method: Spontaneous locomotor activity can be measured to determine sedative effects of compounds. Locomotor activity is measured in eight computerized Digiscan-16 Animal Activity Monitors (Omnitech Electronics, Columbus, Ohio) equipped with 48 infrared photocell emitters and detectors. Each box is constructed of Plexiglas sides and floor. Horizontal activity is detected by a set of horizontal sensors on the front to back walls and a second group of sensors on the side to side walls located 5 cm above the cage floor. Vertical activity is detected by a third set of sensors on the side to side walls located 13.5 cm above the cage floor. The rats are tested in the presence of white noise (62 dB) and red St light (60 watt).
Test compound is administered IV in a 50% PEG vehicle 5 minutes prior to the test session. A range of compound doses is typically used and 6 to 8 rats are tested at each dose. The animal's movement time, vertical activity, and total distance traveled are tracked over a 15 minute test session. A sedative, or hypnotic, effect in the spontaneous locomotor activity model is defined by a decrease in any two of these three measures relative to animals given vehicle alone.

rats [8] = test: elevated plus maze; assay type: in vivo; conditions: rat, IV, statistically significant response (anxiolytic effect)
Method: The elevated plus maze model capitalizes on rats' innate fear of open, elevated places. The test apparatus is an elevated plus maze consisting of two open arms and two closed arms. A rat will naturally chose to spend more time on the closed arms of the maze than on the open arms but that if an efficacious anxiolytic compound is administered to the rat prior to the test the amount it of time the rat spends in the open arms is increased.
Test compound is administered IV in a 50% PEG (polyethylene glycol) vehicle 5 minutes prior to the test session. A range of compound doses is typically used and 8-10 rats are tested at each dose. The rat is placed in the center of the maze facing one of the open arms. The animal's locomotion is tracked over a five minute test session using photocells interfaced to a computer. The computer measures the number of entries into each arm and the time spent on each arm. An anxiolytic effect in the elevated plus maze model is defined by an increase in the percentage of time spent on the open arms in compound versus vehicle treated animals.

rats [9] = test: Porsolt forced swim test; assay type: in vivo; conditions: rat, administered IV, statistically significant response
Excerpt: The effects measured in this model have been correlated to antidepressant efficacy for drugs. The paradigm of this model is that an effective antidepressant compound will cause a rat to make greater attempts to escape a water-filled cylinder than a rat given vehicle only.
Animals used in this study were non-naive male Sprague Dawley Rats (SASCO, St. Louis) weighing between 280-350 grams. The test apparatus consists of 6 clear Plexiglas cylinders 40 cm high×19 cm wide. Cylinders are filled to 18 cm with 25° C. water. Each rat is placed in a cylinder for a 15 minute training session. Following either subchronic or acute dosing of either vehicle (0.5% methylcellulose) of compound, animals are brought back 24 hours later for a 5 minute test session. These test session is videotaped for later scoring.
Subchronic dosing consists of administering drug three times in the 24-hour period between training and testing. The drug is administered 24 hrs., 5 hrs., and 1 hr. prior to the test session. Acute dosing consists of administering the drug once, 1 hour prior to the test session. Scoring is done using a time-sampling computer program written in Visual Basic and run in DOS. […] These sampling score are then converted into percentages of the test session.

[10] = IV, hypnotic effect (Table VII)
[11] = IV, sedation as side effect (Tables V and IX)

Structure (SMILES) | Ki [2] | oocyte electrophysiology maximum potentiation (%) α2β3γ2 [3] | Emax [4] | oocyte electrophysiology maximum potentiation (%) α3β3γ2 [5] | oocyte electrophysiology maximum potentiation (%) α1β2γ2 [6] | spontaneous locomotor activity, minimal efficacious dose (rats [7]; [10]) | oocyte electrophysiology maximum potentiation (%) α5β3γ2 [4] | elevated plus maze, minimal efficacious dose (rats [8]) | further results
O=C(Nc1ccc(OCCO)cc1)c1c[nH]c2c1C(=O)CCC2 [compound 12] | 5.4 nM | 63% | -12% | 82% | 15% | – | – | – | cognitive model (step-down passive avoidance), minimal efficacious dose (rats [1]; IV): 0.06 mg/kg
O=c1[nH]c2c(n1-c1nc3ccc(F)c(F)c3o1)CCCCC2 [compound 7] | 3 nM | 51% | -23% | 83% | 18% | 0.125 mg/kg | – | – | –
COc1ccc(NC(=O)c2c[nH]c3c2C(=O)CC(C)(C)C3)c(F)c1 [compound 6] | 11 nM | 72% | – | 95% | 25% | 0.25 mg/kg | 42% | – | step-down passive avoidance, minimal efficacious dose (rats [1]; in vivo, iv, 24 h): 4 mg/kg
CNCc1ccc(NC(=O)c2c[nH]c3c2C(=O)CCCC3)cc1 [compound 4] | – | – | 0% | – | – | – | 38% | 0.5 mg/kg | Porsolt swim test, minimal efficacious dose (rats [9]): 20 mg/kg
c1cc2c(cc1-c1ncc3[nH]c4c(c3n1)CCCC4)OCO2 [compound 9] | 7.8 nM | 53% | < 10% | 23% | 33% | 0.5 mg/kg | – | – | step-down passive avoidance, minimal efficacious dose (rats [1]; in vivo, iv, 24 h): 0.5 mg/kg
O=c1c2c[nH]c3ccccc3n-2c(=O)n1-c1ccc(F)cc1 [compound 10] | 10 nM | 22% | -27% | 23% | – | – | – | – | cognitive model (step-down passive avoidance), minimal efficacious dose (rats [1]; IV): 0.25 mg/kg; Emax [6]: 0%
O=c1c(-c2ccccc2F)nc2c[nH]c3ccccc3n1-2 [compound 2] | 10 nM | 40% | -11% | 39% | 18% | – | – | 0.5 mg/kg | spontaneous locomotor activity, minimal efficacious dose (rats [7]; in vivo, iv, 15 min): 4 mg/kg
O=C(Nc1cccc(F)c1)c1c[nH]c2c(c1=O)CCC2 [compound 5] | 8.3 nM | 44% | 0% | 44% | – | – | – | 0.5 mg/kg | Emax [6]: 0%
CC(C)(C)OC(=O)c1ncn2c1C1CCCN1C(=O)c1c(Br)cccc1-2 (stereo not shown) [Ro16-6028, reference compound] | 0.48 nM | 37% | – | 76% | 40% | – | 64% | – | spontaneous locomotor activity, minimal efficacious dose (rats [7]; [11]): 0.06 mg/kg; EC50 [3]: 5 nM; EC50 [4]: 3 nM; EC50 [5]: 5 nM; EC50 [6]: 3 nM; Porsolt swim test, minimal efficacious dose (rats [9]): 1 mg/kg
Cc1nnc2n1-c1ccc(Cl)cc1C(c1ccccc1)=NC2 [Alprazolam, reference compound] | 3.3 nM | 333% | – | 774% | 327% | – | 206% | 0.0625 mg/kg | spontaneous locomotor activity, minimal efficacious dose (rats [7]; [11]): 0.125 mg/kg
CC1CC(=O)c2c(C(=O)Nc3ccc(F)cc3)c[nH]c2C1 (stereo not shown) [compound 8] | 24 nM | 42% | – | 61% | 17% | 0.5 mg/kg | 16% | – | –
Cc1ccc(-c2nc3ccc(C)cn3c2CC(=O)N(C)C)cc1 [Zolpidem, reference compound] | 48 nM | 350% | – | 882% | 263% | 0.25 mg/kg | – | – | step-down passive avoidance, minimal efficacious dose (rats [1]; IV, cognitive impairment side effect (Table VII)): 0.5 mg/kg
